According to US9510581B2, “Bed bug lures” (Rutgers, The State University of New Jersey, priority 2011, dated 2016):

What was measured:
Assay type in all cases: in vivo, Cimex lectularius L.
[1] = tested on: bed bugs; experiment: Screening of chemical lures in four-choice pitfall trap bioassays; settings: for Trap catch versus corresponding unbaited control: four-choice bioassays, P<0.05; for Percent catch of bed bugs in pitfall traps, Mean (%) ± SE: four-choice: three lures and an unbaited control per arena, 50 μl lure, plastic tray arena, 50 bugs, 8 hours
Description: Bed bugs were collected from an infested house in Lakewood, N.J. They were maintained in plastic containers (4.7 cm height and 5 cm diameter) with folded paper as harborages at 26° C.±1° C., 40±10% relative humidity, a 12:12 hour (L:D) photoperiod, and were deprived of food for the entire duration of the study. All bioassays were conducted within 3 months after bed bugs were collected.
Pitfall traps were used to evaluate the attractiveness of lures. The pitfall trap was an inverted plastic dog bowl (600 ml volume, 18 cm diameter, 6.4 cm deep and 1 mm thickness) (IKEA, Baltimore, Md., USA) (FIG. 1a). The outer wall of the trap was covered with a layer of paper surgical tape (Caring International, Mundelein, Ill., USA), which was painted black with ColorPlace spray paint (WalMart Stores Inc., Bentonville, USA).
Two types of experimental arenas were used: a) wooden door arenas (200 by 76 cm by 6.4 cm) (length by width by height) with wooden floor, and b) plastic tray arenas (80 by 75 by 5 cm) (length by width by height) with bottom lined with brown paper (FIG. 1b). A layer of fluoropolymer resin (DuPont Polymers, Wilmington, Del., USA) was applied to inner walls of the experimental arenas to prevent the bugs from escaping. A layer of this resin was also applied to inner walls of the pitfall traps in a similar fashion to confine the bed bugs that fell into the traps. A filter paper (15 cm diameter) was placed on the floor in the center of each arena, and then a plastic ring (13.3 cm diameter and 6.4 cm height) was placed on the filter paper for confining the bed bugs. A piece of folded cardboard and folded fabric was placed on the filter paper to provide harborages for bed bugs. Six additional paper harborages measuring 5.1 cm long and 3.3 cm wide were placed along the edges of the floor of each wooden arena. Two wooden door arenas were located at least 6 m away from each other in a 15 m long and 9 m wide room at 23-25° C. Two additional wooden door arenas were located in two 4 m long and 2.3 m wide rooms at 24-25° C. These rooms had normal air current through vents on the ceilings or through the open door. In experiments using plastic tray arenas, four arenas were placed simultaneously in a non-ventilated, closed room measuring 4 m long and 2.3 m wide at 24-25° C. A 12:12 hour (L:D) cycle was maintained in all the rooms that were used for bioassays. […]
Twelve known or potential bed bug chemical lures (Table 1) were evaluated for their attractiveness to bed bugs in plastic tray arenas.

[2] = tested on: bed bugs; experiment: Effect of CO2 release rates on bed bug trap efficacy, door arenas; settings: release rates 200, 300, 400 and 500 ml/min
Description: The two traps were placed at opposite ends equidistant (85 cm) from the center. The experiment was tested over 4 consecutive days. On each day, a different CO2 release rate was used in each arena following a Latin square design. The CO2 source was 5 lb cylinders (Airgas East Inc., Piscataway, N.J., USA). The tested release rates were: 200, 300, 400 and 500 ml/min. The rate was determined as ml of water displaced by CO2 per unit of time using a Bubble-O-Meter (Bubble-O-Meter, Dublin, Ohio, USA). The CO2 was introduced into 240 ml plastic cups that were placed on the pitfall traps (FIG. 1c). Two holes were made on the lid of each plastic cup for CO2 to escape. Fifty bed bug nymphs and adult males were released into the center of each arena and confined with a plastic ring. The bugs were acclimated for approximately 15 hours before starting the treatments. At 1 hour after dark cycle, the plastic ring confining the bugs was removed. The numbers of bed bugs trapped in the pitfall traps and those in the arenas were collected and counted after 8 hours. […] The number of dead or moribund bed bugs in each arena was very low (<5%) in all the bioassays. After counting, dead and moribund bugs were replaced with healthy bugs in each arena. All bugs were placed back to the center of the arenas and confined with plastic rings for 15 hours before starting next bioassay.

[3] = tested on: bed bugs; experiment: Attractiveness of chemical lures in two-choice pitfall trap bioassays; settings: baited versus unbaited trap, Kruskal-Wallis / Tukey's HSD
Description: These chemicals were further evaluated to confirm their attractiveness to bed bugs using two-choice assays. The experimental setup and testing procedure were similar to those described above however only two traps were placed at opposite corners of each arena (FIG. 1b). One trap was used as an unbaited control and the other trap received a chemical lure. Each chemical lure was evaluated 8 times over two consecutive days. The baited and non-baited trap positions in each arena were switched on the second day to eliminate any positional effect that could influence the trap catch. Percent attraction in multiple comparison experiments involving a control was calculated as: Percent attraction=100×(T−C)/Total, where “T” is the number of bed bugs in the baited pitfall trap and “C” is the number of bed bugs in the non-baited pitfall trap. “Total” is the total number of healthy bugs in each experiment arena at time of recording the bed bug locations. The percent catch is the number of bed bugs found in a pitfall trap divided by number of healthy bed bugs in each arena at the time of recording the results. Positive values indicate attraction to the treatment and negative values indicate repellency; and the values range from −100 (complete repellency) to +100 (complete attraction). For the paired design experiments, mean percent catch were analyzed by paired t-test (P=0.05). […]

[4] = tested on: bed bugs; experiment: Relative attractiveness of four chemical lures in four-choice bioassays; settings: for Percent of bed bugs captured in baited pitfall traps: four traps per arena, each baited with one of four chemicals, four replicates
Description: Four traps in each arena were baited with one of these chemicals. Four arenas were used to obtain four replicates. Percent attraction in multiple comparison experiments involving a control was calculated as: Percent attraction=100×(T−C)/Total, where “T” is the number of bed bugs in the baited pitfall trap and “C” is the number of bed bugs in the non-baited pitfall trap. “Total” is the total number of healthy bugs in each experiment arena at time of recording the bed bug locations. The percent catch is the number of bed bugs found in a pitfall trap divided by number of healthy bed bugs in each arena at the time of recording the results. Positive values indicate attraction to the treatment and negative values indicate repellency; and the values range from −100 (complete repellency) to +100 (complete attraction). For the paired design experiments, mean percent catch were analyzed by paired t-test (P=0.05). Mean percent attractions among the treatments were compared using the non-parametric Kruskal-Wallis tests followed by Tukey's HSD test. The data for Experiment 2.10.1 and 2.10.2 were pooled for analyzing differences among treatments (treatment×day interaction was insignificant from Analysis of Variance test).

C[C@H](O)C(=O)O [L-lactic acid]
Trap catch versus corresponding unbaited control [1]: significantly higher number of bugs than their corresponding controls | Percent catch of bed bugs in pitfall traps, Mean (%) ± SE [1]: 25.7 ± 2.7a %

O=C=O [CO2, carbon dioxide]
Attraction of bed bugs to traps baited with CO2 [2]: very attractive to bed bugs regardless of the CO2 release rates

CC(O)c1ccccc1 (stereo not drawn) [Styralol]
Percent catch of bed bugs in pitfall traps, Mean (%) ± SE [1]: 16.4 ± 2.4bc %

OCc1ccccc1 [Benzyl alcohol]
Percent catch of bed bugs in pitfall traps, Mean (%) ± SE [1]: 25.1 ± 3.4ab %

CC(=O)CC/C=C(/C)CCC=C(C)C [Z-Geranyl Acetone]
Percent catch of bed bugs in pitfall traps, Mean (%) ± SE [1]: 13.0 ± 2.4a %

CCCCCCCCC=O [Nonanal]
Trap catch versus corresponding unbaited control [1]: significantly higher number of bugs than their corresponding controls | Percent catch of bed bugs in pitfall traps, Mean (%) ± SE [1]: 27.7 ± 3.2a % | Attraction compared among lures (percent attraction) [3]: significantly more attractive than L-lactic acid, and L-carvone | Percent of bed bugs captured in baited pitfall traps [4]: 34.0±4.6% | Attractiveness relative to spearmint oil, 1-octen-3-ol or coriander Egyptian oil ([4]; four-choice comparison, P=0.01): approximately 2 fold

C=CC(O)CCCCC (stereo not drawn) [1-octen-3-ol]
Trap catch versus corresponding unbaited control [1]: significantly higher number of bugs than their corresponding controls | Percent catch of bed bugs in pitfall traps, Mean (%) ± SE [1]: 28.3 ± 2.5a^a % | Attraction compared among lures (percent attraction) [3]: not significantly different from nonanal | Percent of bed bugs captured in baited pitfall traps [4]: 17.0±1.8%

CC(=O)CCC=C(C)C [6-Methyl-5-Hepten-2-one]
Percent catch of bed bugs in pitfall traps, Mean (%) ± SE [1]: 20.9 ± 2.52ab %

L-carvone
Trap catch versus corresponding unbaited control [1]: significantly higher number of bugs than their corresponding controls | Percent catch of bed bugs in pitfall traps, Mean (%) ± SE [1]: 27.5 ± 3.5a %
